In patent US20050221359A1, “Cospeptin, cosmedin and their uses” (The Board of Trustees of the Leland Stanford Junior …, priority 2004, published 2005):
“Also recorded” adds a separate entry of the source.

Key:
[1] = system: normal Sprague-Dawley rats; assay: Effects of cospeptin on blood pressure and heart rate (tail-cuff method); assay type: in vivo, rat; details: intraperitoneal administration, conscious normal rats
Method: Effects of cospeptin on blood pressure and heart rate in normal […] rats. Blood pressure measurements in conscious male Sprague-Dawley rats (7-9 weeks of age) were made in animals preadapted to the measurement procedure. Indirect systolic pressure was determined by a programmable NIBP system using the tail-cuff method (Columbus Instruments, Columbus, Ohio). Following attachment of the pressure transducer, rats were left undisturbed for 10 min before baseline measurements that spanned a 15-min interval. Following baseline measurements, rats were injected intraperitoneally with varying doses of hormones. Blood pressure and heart rate were monitored for 50 min at 25-sec intervals. Changes in blood pressure were calculated as the average of thirty measurements performed within each 5-min interval.

[2] = system: cospeptin receptors in the pituitary; assay: Displacement of 125I-Tyr0-cospeptin E binding in pituitary (competition studies); set-up: species or system rat; details: competition with 125I-Tyr0-cospeptin E
Method: (§1) Radiolabeling of cospeptin. Peptide iodination was performed according to the IODO-GEN procedure (Pierce, Upland, Ind.). The mixture of Tyr0-cospeptin E (20 μg) and 1 mCi [^125I] Nal was transferred to precoated IODO-GEN vials before incubation at room temperature for 4 min. The ^125I-labeled peptide was applied to a Sep-Pak C18 cartridge (Waters, Milford, Mass.) for purification and was eluted with 60% acetonitrile/0.1%TFA. The purified tracer was stored at −20° C.
(§2) Receptor binding experiments. Homogenates were prepared from different tissues of adult rats. Binding assays were performed in glass tubes. Routinely, tissue homogenates were incubated in 100 μl of binding buffer (PBS with 0.1% bovine serum albumin) for 16 h at room temperature with varying concentrations of ^125I-Tyr0-cospeptin E (100, 000 cpm˜2 nM) in the presence or absence of unlabelled Tyr0-cospeptin E (in 5,000 fold excess). After incubation, the tubes were centrifuged for 10 min at 10,000×g, and the pellet was washed twice in ice-cold PBS. Finally, Tyr0-cospeptin E bound to the tissues was counted using a gamma-spectrophotometer. Specifically bound counts were calculated by subtracting unspecific counts determined in the presence of 5,000-fold excess of nonlabeled peptide from total counts bound to the tissues. For displacement ^125I-Tyr0-cospeptin E binding, increasing concentrations of Tyr0-cospeptin E or other peptides or analogues (cospeptin E, cospeptin A, cospeptin B, cospeptin D, cospeptin F or cosmedin B) were added.

C57/BL6 male mice = assay: Effects of peptides on gastric emptying activity; assay type: in vivo, mouse; details: intraperitoneal injection, fed mice, stomach weighed after treatment
Method: Effects of peptides on gastric emptying activity Eight-week-old C57/BL6 male mice deprived of food for 20 h were given food pellets for 90 min before intraperitoneal injection with different hormones or saline. After treatment, mice were deprived of food again and killed 90 min later. The stomach was excised at the pylorus and cardia before weighing. Gastric emptying was calculated by comparing the stomach weight of treated mice to the stomach weight of control mice killed at the time of hormone injection. The rates of gastric emptying were calculated by the formula (wet weight of stomach in fed animals killed at 0 h minus wet weight at […] after treatment/wet weight of stomach in fed animals killed at 0 h)×100.

rat ileal tissue strips = assay: Ileum contraction assay (organ bath, ileal muscle strips); details: for muscle contraction of ileal strips: cumulative concentrations 10 nM to 10 μM; for magnitude of contraction relative to maximum response to muscarinic agonist 5-methylfurmethide: normalised to 5-methylfurmethide maximum
Method: Ileum contraction assay. Female rats (˜350 g) were euthanized with CO2 and the abdominal cavity was opened to expose the intestines. A 3-cm length of ileum was removed, cleared of any adhering tissue and longitudinal strips of ileal muscle (2×5 mm) were cut. On average, six preparations were obtained from each animal. The tissues were suspended in 20-ml organ baths containing Krebs-Henseleit solution maintained at 32° C. containing 2.5 mM Ca^2+ and gassed continuously with 95% O2/5% CO2. The tissues were placed under a loading tension of 1 g. The tissue was equilibrated for 90 min after which a dose response curve of the peptide of interest was obtained at 0.5 log unit cumulative incremental concentrations from 10 nM to 10 μM.

[3] = biological target: cospeptin E receptor in pituitary tissues; assay: Saturation binding of 125I-Tyr0-cospeptin E to pituitary homogenate; details: saturation curve, rat pituitary gland
Method: as §1
as §2, with “For displacement ^125I-Tyr0-cospeptin E binding, increasing concentrations of Tyr0-cospeptin E or other peptides or analogues (cospeptin E, cospeptin A, cospeptin B, cospeptin D, cospeptin F or cosmedin B) were added.” left out

Substance	blood pressure [1]	heart rate [1]	order of affinity to the cospeptin receptors [2]	gastric emptying activity (C57/BL6 male mice)	also measured
cospeptin A: human cospeptin Form A, SEQ ID NO: 6, FYPIYFRPLMRLEEYKKEQAINRAGIVQEDVQPPGLKVWSDPFG (KRNWTPQAMLYLKGAQGHRFISDQSRRK)	minimal effects	decreased heart rate	cospeptin E=Tyr0-cospeptin E>cospeptin A,B>>cospeptin F>>cosmedin		
cospeptin B: human cospeptin Form B, SEQ ID NO: 7, PLMRLEEYKKEQAINRAGIVQEDVQPPGLKVWSDPFG (KRNWTPQAMLYLKGAQGRRFLSDQSRRK)	suppressed blood pressure		cospeptin E=Tyr0-cospeptin E>cospeptin A,B>>cospeptin F>>cosmedin	exhibited gastric emptying activities; also recorded: effectively inhibits gastric emptying	
cospeptin F: human cospeptin Form F, SEQ ID NO: 11, VWSDPFG (FYPIYFRPLLRLEEYQKEQAVNRAGIVQEDVQPPGLKVWSDPFGRK; rat)			cospeptin E=Tyr0-cospeptin E>cospeptin A,B>>cospeptin F>>cosmedin		
human cosmedin Form B, SEQ ID NO: 4, NWTPQAMLYLKGAQG; presumed amidated at carboxyl terminus [cosmedin B]			cospeptin E=Tyr0-cospeptin E>cospeptin A,B>>cospeptin F>>cosmedin	effectively inhibits gastric emptying	gastric emptying activity (C57/BL6 male mice; listed as cosmedin-B): suppressed gastric emptying activity in a dose-dependent manner; muscle contraction of ileal strips (rat ileal tissue strips): concentration dependent muscle contraction; muscle contraction of ileal strips (rat ileal tissue strips; listed as cosmedin-B): produced a concentration-dependent muscle contraction; also recorded: direct action of cosmedin-B on muscle contraction; magnitude of contraction relative to maximum response to muscarinic agonist 5-methylfurmethide (rat ileal tissue strips): comparable to that of the acetylcholine muscarinic receptor agonist 5-methylfurmethide; magnitude of contraction relative to maximum response to muscarinic agonist 5-methylfurmethide (rat ileal tissue strips; listed as cosmedin-B): comparable to that mediated by the muscarinic receptor stimulation; potency pA50 (rat ileal tissue strips; rat ileal tissue strips): 6.05±0.17
human cospeptin Form E, SEQ ID NO: 10, AGIVQEDVQPPGLKVWSDPFG [cospeptin E]	suppressed blood pressure	decreased heart rate	cospeptin E=Tyr0-cospeptin E>cospeptin A,B>>cospeptin F>>cosmedin		Kd [3]: 5 nM
